Data taken from ChEMBL document CHEMBL4118077, “Synthesis of thiazole linked indolyl-3-glyoxylamide derivatives as tubulin polymerization inhibitors” (Eur J Med Chem, 2017).
Activity calls are given as the source filed them. No cut-off for these calls is given here.

Legend:
DU-145 [1] = test: Induction of morphological changes in human DU145 cells assessed as apoptotic body formation after 48 hrs by acridine orange/ethidium bromide staining based fluorescence microscopic method; type: functional, cell-based
DU-145 [2] = test: Induction of apoptosis in human DU145 cells assessed as late apoptotic cells at 200 nM after 24 hrs by Annexin V-FITC/propidium iodide staining based flow cytometry (reference value: 6.55%); type: functional
DU-145 [3] = test: Antimigratory activity against human DU145 cells assessed as inhibition of migration to scratch area at 200 nM after 24 hrs by phase contrast microscopic method relative to control; type: functional; details: DU-145, 24 h
DU-145 [4] = test: Induction of apoptosis in human DU145 cells assessed as necrotic cells at 400 nM after 24 hrs by Annexin V-FITC/propidium iodide staining based flow cytometry (reference value: 1.82%); type: functional
DU-145 [5] = test: Antimigratory activity against human DU145 cells assessed as inhibition of migration to scratch area at 100 nM after 24 hrs by phase contrast microscopic method relative to control; type: functional; details: DU-145, 24 h
DU-145 [6] = test: Induction of mitochondrial membrane potential loss in human DU145 cells assessed as intact membrane cell population at 200 nM after 24 hrs by JC-1 staining based flow cytometry (reference value: 77.24%); type: functional
DU-145 [7] = test: Induction of morphological changes in human DU145 cells assessed as cell shrinkage after 48 hrs by acridine orange/ethidium bromide staining based fluorescence microscopic method; type: functional
DU-145 [8] = test: Induction of apoptosis in human DU145 cells assessed as early apoptotic cells at 400 nM after 24 hrs by Annexin V-FITC/propidium iodide staining based flow cytometry (reference value: 5.92%); type: functional
DU-145 [9] = test: Induction of apoptosis in human DU145 cells assessed as necrotic cells at 200 nM after 24 hrs by Annexin V-FITC/propidium iodide staining based flow cytometry (reference value: 1.82%); type: functional
DU-145 [10] = test: Cell cycle arrest in human DU145 cells assessed as accumulation at subG1 phase at 200 nM after 24 hrs by propidium iodide staining based flow cytometry (reference value: 0.43%); type: functional
DU-145 [11] = test: Induction of apoptosis in human DU145 cells after 24 hrs by Annexin V-FITC/propidium iodide staining based flow cytometry; type: functional, cell-based
DU-145 [12] = test: Induction of mitochondrial membrane potential loss in human DU145 cells assessed as depolarized cell population at 400 nM after 24 hrs by JC-1 staining based flow cytometry (reference value: 22.28%); type: functional
DU-145 [13] = test: Antiproliferative activity against human DU145 cells after 48 hrs by MTT assay; type: functional, cell-based; details: DU-145, 48 h
DU-145 [14] = test: Cell cycle arrest in human DU145 cells assessed as accumulation at subG1 phase at 400 nM after 24 hrs by propidium iodide staining based flow cytometry (reference value: 0.43%); type: functional
DU-145 [15] = test: Cell cycle arrest in human DU145 cells assessed as accumulation at G0/G1 phase at 200 nM after 24 hrs by propidium iodide staining based flow cytometry (reference value: 63.77%); type: functional
DU-145 [16] = test: Cell cycle arrest in human DU145 cells assessed as accumulation at G2/M phase at 100 nM after 24 hrs by propidium iodide staining based flow cytometry (reference value: 25.88%); type: functional
PC-3 = test: Antiproliferative activity against human PC3 cells after 48 hrs by MTT assay; type: functional, cell-based; details: PC-3, 48 h
DU-145 [17] = test: Cell cycle arrest in human DU145 cells assessed as accumulation at G2/M phase at 400 nM after 24 hrs by propidium iodide staining based flow cytometry (reference value: 25.88%); type: functional
DU-145 [18] = test: Induction of mitochondrial membrane potential loss in human DU145 cells assessed as depolarized cell population at 200 nM after 24 hrs by JC-1 staining based flow cytometry (reference value: 22.28%); type: functional
DU-145 [19] = test: Cell cycle arrest in human DU145 cells assessed as accumulation at S phase at 400 nM after 24 hrs by propidium iodide staining based flow cytometry (reference value: 14.8%); type: functional
HCT-15 = test: Antiproliferative activity against human HCT15 cells after 48 hrs by MTT assay; type: functional, cell-based; details: HCT-15, 48 h
DU-145 [20] = test: Induction of mitochondrial membrane potential loss in human DU145 cells after 24 hrs by JC-1 staining based flow cytometry; type: functional, cell-based
DU-145 [21] = test: Cell cycle arrest in human DU145 cells assessed as accumulation at G0/G1 phase at 100 nM after 24 hrs by propidium iodide staining based flow cytometry (reference value: 63.77%); type: functional
DU-145 [22] = test: Cell cycle arrest in human DU145 cells assessed as accumulation at S phase at 100 nM after 24 hrs by propidium iodide staining based flow cytometry (reference value: 14.8%); type: functional
DU-145 [23] = test: Cell cycle arrest in human DU145 cells assessed as accumulation at G2/M phase after 24 hrs by propidium iodide staining based flow cytometry; type: functional
Sus scrofa = species on record: Sus scrofa; test: Inhibition of porcine brain tubulin polymerization at 5 uM measured for 1 hr by fluorescence assay relative to control
DU-145 [24] = test: Cell cycle arrest in human DU145 cells assessed as accumulation at G0/G1 phase at 400 nM after 24 hrs by propidium iodide staining based flow cytometry (reference value: 63.77%); type: functional
DU-145 [25] = test: Induction of mitochondrial membrane potential loss in human DU145 cells assessed as intact membrane cell population at 400 nM after 24 hrs by JC-1 staining based flow cytometry (reference value: 77.24%); type: functional
DU-145 [26] = test: Antimigratory activity against human DU145 cells assessed as inhibition of migration to scratch area after 24 hrs by phase contrast microscopic method; type: functional, cell-based
DU-145 [27] = test: Antimigratory activity against human DU145 cells assessed as inhibition of migration to scratch area at 400 nM after 24 hrs by phase contrast microscopic method relative to control; type: functional; details: DU-145, 24 h
DU-145 [28] = test: Induction of morphological changes in human DU145 cells assessed as nuclear condensation at 100 to 200 nM after 48 hrs by DAPI staining based fluorescence microscopic method; type: functional, cell-based
DU-145 [29] = test: Induction of morphological changes in human DU145 cells assessed as membrane blebbing after 48 hrs by acridine orange/ethidium bromide staining based fluorescence microscopic method; type: functional, cell-based
DU-145 [30] = test: Induction of intracellular mitochondrial superoxide generation in human DU145 cells after 48 hrs by MitoSOX staining based fluorescence microscopic method; type: functional, cell-based
DU-145 [31] = test: Induction of apoptosis in human DU145 cells assessed as live cells at 400 nM after 24 hrs by Annexin V-FITC/propidium iodide staining based flow cytometry (reference value: 85.71%); type: functional
DU-145 [32] = test: Induction of morphological changes in human DU145 cells assessed as nuclear fragmentation at 100 to 200 nM after 48 hrs by DAPI staining based fluorescence microscopic method; type: functional, cell-based
RWPE-1 = test: Cytotoxicity against human RWPE1 cells assessed as reduction in cell viability after 48 hrs by MTT assay; type: cell-based; details: RWPE-1, 48 h
DU-145 [33] = test: Induction of apoptosis in human DU145 cells assessed as live cells at 200 nM after 24 hrs by Annexin V-FITC/propidium iodide staining based flow cytometry (reference value: 85.71%); type: functional
DU-145 [34] = test: Cell cycle arrest in human DU145 cells assessed as accumulation at S phase at 200 nM after 24 hrs by propidium iodide staining based flow cytometry (reference value: 14.8%); type: functional
DU-145 [35] = test: Cell cycle arrest in human DU145 cells assessed as accumulation at subG1 phase at 100 nM after 24 hrs by propidium iodide staining based flow cytometry (reference value: 0.43%); type: functional
DU-145 [36] = test: Induction of apoptosis in human DU145 cells assessed as early apoptotic cells at 200 nM after 24 hrs by Annexin V-FITC/propidium iodide staining based flow cytometry (reference value: 5.92%); type: functional
DU-145 [37] = test: Cell cycle arrest in human DU145 cells assessed as accumulation at G2/M phase at 200 nM after 24 hrs by propidium iodide staining based flow cytometry (reference value: 25.88%); type: functional
A549 = test: Antiproliferative activity against human A549 cells after 48 hrs by MTT assay; type: functional, cell-based; details: A549, 48 h
DU-145 [38] = test: Induction of apoptosis in human DU145 cells assessed as late apoptotic cells at 400 nM after 24 hrs by Annexin V-FITC/propidium iodide staining based flow cytometry (reference value: 6.55%); type: functional

COc1ccc2sc(NC(=O)Cn3cc(C(=O)C(=O)Nc4ccccc4)c4ccccc43)nc2c1
Activity (DU-145 [1]): Dose-dependent effect
Activity (DU-145 [2]): 5.81%
inhibition at 0.2 µM (DU-145 [3]): 44%
Activity (DU-145 [4]): 4.06%
inhibition at 0.1 µM (DU-145 [5]): 74.8%
Activity (DU-145 [6]): 42.39%
Activity (DU-145 [7]): Dose-dependent effect
Activity (DU-145 [8]): 16.84%
Activity (DU-145 [9]): 3.58%
Activity (DU-145 [10]): 5.88%
Activity (DU-145 [11]): Dose-dependent effect
Activity (DU-145 [12]): 64.65%
IC50 (DU-145 [13]): 93 nM
Activity (DU-145 [14]): 26.89%
Activity (DU-145 [15]): 51.89%
Activity (DU-145 [16]): 30.15%
IC50 (PC-3): 361 nM
Activity (DU-145 [17]): 50.9%
Activity (DU-145 [18]): 57.05%
Activity (DU-145 [19]): 5.51%
IC50 (HCT-15): 180 nM
Activity (DU-145 [20]): Dose-dependent effect
Activity (DU-145 [21]): 47.69%
Activity (DU-145 [22]): 5.8%
Activity (DU-145 [23]): Dose-dependent effect
inhibition (Sus scrofa): 68.5%
Activity (DU-145 [24]): 16.32%
Activity (DU-145 [25]): 34.21%
inhibition (DU-145 [26]): Dose-dependent effect
inhibition at 0.4 µM (DU-145 [27]): 34.8%
Activity (DU-145 [28]): Active
Activity (DU-145 [29]): Dose-dependent effect
Activity (DU-145 [30]): Dose-dependent effect
Activity (DU-145 [31]): 45.47%
Activity (DU-145 [32]): Active
IC50 (RWPE-1): 710 nM
Activity (DU-145 [33]): 84.72%
Activity (DU-145 [34]): 8.26%
Activity (DU-145 [35]): 17.37%
Activity (DU-145 [36]): 5.89%
Activity (DU-145 [37]): 34.07%
IC50 (A549): 2100 nM
Activity (DU-145 [38]): 33.63%
